Results: PMC12294558, “New 1,2,4-Triazole Derivatives with a N-Mannich Base Structure Based on a 4,6-Dimethylpyridine Scaffold as Anticancer Agents: Design, Synthesis, Biological Evaluation, and Molecular Modeling” (International Journal of Molecular Sciences, 2025)
Marks after values point to notes of the source that are not given here.

Columns and labels:
CCD 841 CoTr cells = test: MTT viability assay, normal colonic epithelial cells; type: cell-based, human; conditions: 24 h, Non-toxic = no toxicity in tested range 1–500 μM
Experimental: (§1) The cytotoxic effects of ten newly synthesized N-Mannich bases were assessed on the normal human intestinal epithelium (CCD 841 CoTr) and cancer cell lines: gastric cancer (EPG) and four colorectal cancer lines (Caco-2, LoVo, LoVo/Dx, and HT-29). Cell viability was evaluated using the MTT assay in accordance with Annex C of ISO 10993-5 [33].
(§2) The biological activity of the newly synthesized compounds was assessed in the context of anticancer activity. For this purpose, several gastrointestinal cancer lines were selected: gastric cancer (EPG 257, which belongs to the collection of the Laboratory of Cell Culture and Advanced Therapy at the University of Environmental and Life Sciences in Wrocław), and four colorectal cancer cell lines (LoVo, Caco-2, and HT-29) were obtained from the European Collection of Authenticated Cell Cultures (ECACC) and were delivered by Sigma-Aldrich, a certified distributor for the biobank. Additionally, LoVo cells were used to develop a doxorubicin-resistant subline, referred to as LoVo/Dx. Resistance was induced through gradual adaptation to increasing concentrations of doxorubicin, starting from 0.1 µg/mL and incrementally raised to 0.8 µg/mL. After reaching the maximum concentration, the cells were maintained in a medium containing 0.4 µg/mL doxorubicin for a period of three months to stabilize the resistant phenotype. […] The resulting LoVo/Dx subline, resistant to doxorubicin, was cultured in DMEM/F-12 medium and utilized in assays evaluating the effectiveness of novel compounds against multidrug-resistant cancer cells. […] The non-cancerous cell control was normal colonic epithelial cells (CCD 841 CoTr from American Type Culture Collection, (ATCC, Manassas, VA, USA)). Cell cultures were performed under standard conditions (5% CO2, 95% humidity, and 37 °C). Each cell line was cultured in the recommended medium: (1) HT-29 in McCoy’s 5a, (2) Caco-2 in Minimal Essential Medium (MEM, Biological Industries, Beit Haemek, Israel), (3) CCD 841 CoTr in Dulbecco’s Modified Eagle Medium (DMEM, Biological Industries, Beit Haemek, Israel), (4) LoVo in Dulbecco’s Modified Eagle Medium/F-12 (DMEM/F-12; Biological Industries, Beit Haemek, Israel), (5) LoVo/Dx in DMEM/F-12, and (6) EPG in DMEM. Culture media were supplemented with 10% fetal bovine serum (FBS, Sigma-Aldrich, Darmstadt, Germany) and antibiotics (penicillin and streptomycin; Sigma-Aldrich, Darmstadt, Germany). For assays, trypsinized (TrypLE solution, Thermo Fisher Scientific, Waltham, MA, USA) cells were seeded at appropriate densities of 10,000 cells per well for MTT and determination of apoptotic and necrotic cell numbers; 30,000 cells per well for the rhodamine accumulation assay; and 500,000 cells per well for ELISA tests.
(§3) The cytotoxicity of the compounds and drugs used as controls was assessed using the MTT assay. The assay also included a DMSO control. After seeding and allowing the cells to adhere overnight, they were treated with the tested compounds and drugs for another 24 h. After this time, the supernatant was removed, and a 1 mg/mL MTT solution was added for 2 h in 5% CO2, 95% humidity, at 37 °C. The supernatant was then removed, and isopropanol was added to dissolve the purple crystals over 30 min by shaking. Absorbance was measured at 570 nm in a Multiskan GO microplate reader (Thermo Fisher Scientific; Waltham, MA, USA). All reagents used for the assays were purchased from Sigma-Aldrich, Darmstadt, Germany.
(§4) Biological assays were performed in three independent replicates, each involving four samples. ELISA determinations were repeated three times.

EPG cells = test: MTT viability assay, gastric cancer cells; type: cell-based, human; conditions: for SI, EPG: CC50 CCD 841 CoTr / CC50 EPG; for CC50: Homo sapiens, MTT, 24 h, read-out: CC50 ± SD, EPG
Experimental: as §1, §2, §3, §4

Caco-2 cells = test: MTT viability assay, colorectal cancer cells Caco-2; type: cell-based, human; conditions: for SI, Caco-2: CC50 CCD 841 CoTr / CC50 Caco-2; for CC50: Homo sapiens, Caco-2, MTT, 24 h, read-out: CC50 ± SD, Caco-2
Experimental: as §1, §2, §3, §4

LoVo cells = test: MTT viability assay, colorectal cancer cells LoVo; type: cell-based, human; conditions: for SI, LoVo: CC50 CCD 841 CoTr / CC50 LoVo; for CC50: Homo sapiens, LoVo, MTT, 24 h, Non-toxic = no toxicity in tested range 1–500 μM, read-out: CC50 ± SD, LoVo
Experimental: as §1, §2, §3, §4

LoVo/Dx cells = test: MTT viability assay, doxorubicin-resistant LoVo/Dx; type: cell-based, human; conditions: for SI, LoVo/Dx: CC50 CCD 841 CoTr / CC50 LoVo/Dx; for CC50: Homo sapiens, LoVo/DX, MTT, 24 h, read-out: CC50 ± SD, LoVo/Dx
Experimental: as §1, §2, §3, §4

HT-29 cells = test: MTT viability assay, colorectal cancer cells HT-29; type: cell-based, human; conditions: for SI, HT-29: CC50 CCD 841 CoTr / CC50 HT-29; for CC50: Homo sapiens, HT-29, MTT, 24 h, read-out: CC50 ± SD, HT-29
Experimental: as §1, §2, §3, §4

OVCAR-3 cell line = tested on: OVCAR-3 cell line; parameters: method as in PMID 33482607; conditions: cited from earlier work
NUGC cell line = tested on: NUGC cell line; parameters: method as in PMID 25948330; conditions: cited from earlier work
p53 = p53 Human ELISA on HT-29 cell lysates; type: cell-based; conditions: HT-29, 1 µM, 24 h
Experimental: (§5) To check the effect of compound 6 on the level of p-53 and caspase-3 protein, another test was performed on HT-29 cells, taking doxorubicin as the reference drug.
(§6) To assess the level of caspase-3 and p53 protein, HT-29 cell lysates were used after 24 h of incubation with compounds 5 and 6. The supernatant was collected in the prepared and labeled tubes, the cells from the wells were scraped, and the wells were washed with cold PBS, which was also collected. The tubes were then centrifuged, the supernatant was removed, and the cell pellet was lysed in a cell extraction vessel for 30 min on ice, with […] every 10 min. The lysate was transferred to centrifuge tubes and centrifuged at 13,000 rpm for 10 min at 4 °C. The supernatant was transferred to clean tubes in a microcentrifuge.
(§7) The following kits were used: Human Caspase-3 (active) ELISA Kit (KHO1091) and p53 Human ELISA Kit (BMS256), used following the manufacturer’s instructions. ELISA kits were purchased from Thermo Fisher Scientific (Waltham, MA, USA). The absorbance was measured using a Multiskan GO microplate reader (Thermo Fisher Scientific, Waltham, MA, USA) at wavelengths specific to each kit, as recommended by the manufacturer.

Caspase-3 = test: Human Caspase-3 (active) ELISA on HT-29 cell lysates; type: cell-based; conditions: HT-29, 1 µM, 24 h
Experimental: as §5, §6, §7

HepG2 cells = tested on: HepG2 cells; parameters: method as in PMID 36181443; conditions: cited from earlier work

SMILES | CC50 ± SD, CCD 841 CoTr (CCD 841 CoTr cells) | SI, EPG (EPG cells) | CC50 (EPG cells) | SI, Caco-2 (Caco-2 cells) | CC50 (Caco-2 cells) | SI, LoVo (LoVo cells) | CC50 (LoVo cells) | SI, LoVo/Dx (LoVo/Dx cells) | CC50 (LoVo/Dx cells) | SI, HT-29 (HT-29 cells) | CC50 (HT-29 cells) | also measured
Cc1cc(C)c(C(=O)NCc2nn(CN3CCN(c4cccc(Cl)c4)CC3)c(=S)n2C)c(S)n1 [Compound 9, 4,6-dimethyl-N-[(4-methyl-5-thioxo-2-{[4-(3-chlorophenyl)piperazinyl]methyl}-4,5-dihydro-1H-1,2,4-triazol-3-yl)methyl]-2-sulfanylpyridine-3-carboxamide] | Non-toxic ^b | >>1 ^c | 231 ± 7.1 µM | >>1 ^c | 88.6 ± 7.9 µM | >>1 ^c | 152 ± 2.7 µM | >>1 ^c | 260 ± 4.1 µM | >>1 ^c | 253 ± 5.7 µM | –
O=C(O)c1cn(C2CC2)c2cc(N3CCN(Cc4c(O)ccc5ccccc45)CC3)c(F)cc2c1=O [V] | – | – | – | – | – | – | – | – | – | – | – | IC50 (OVCAR-3 cell line): 970 nM
CN1CCN(Cn2nc(-c3ccncc3)n(-c3ccc(Br)cc3)c2=S)CC1 [VIII] | – | – | – | – | – | – | – | – | – | – | – | IC50 (NUGC cell line): 21 nM
COc1cccc2c1C(=O)c1c(O)c3c(c(O)c1C2=O)C[C@@](O)(C(=O)CO)C[C@@H]3O[C@H]1C[C@H](N)[C@H](O)[C@H](C)O1 [Doxorubicin, doxorubicin] | – | – | – | – | – | – | – | – | – | – | – | p53 Conc. ± SD (p53): 7.62 ± 0.17 U/mL; p53 Fold Change (p53; versus untreated control): 4.23; Caspase-3 Conc. ± SD (Caspase-3): 0.92 ± 0.23 ng/mL; Caspase-3 Fold Change (Caspase-3; versus untreated control): 30.67
Nn1c(Sc2c(O)c3ccccc3oc2=O)nnc1-c1ccncc1 [II] | – | – | – | – | – | – | – | – | – | – | – | IC50 (HepG2 cells): 1930 nM
Cc1cc(C)c(C(=O)NCc2nn(CN3CCN(c4ccc([N+](=O)[O-])cc4)CC3)c(=S)n2-c2ccccc2)c(S)n1 [Compound 8] | Non-toxic ^b | >>1 ^c | 142 ± 6.3 µM | >>1 ^c | 84.3 ± 6.8 µM | >>1 ^c | 178 ± 5.3 µM | >>1 ^c | 321 ± 6.8 µM | >>1 ^c | 306 ± 4.9 µM | –
